The record followed here is ChEMBL document CHEMBL1201862, “PubChem BioAssay data set” (2004).

By GI50 is commonly meant the concentration that inhibits growth by half.

What all share (test): DTP human tumour cell line panel, 48 h
Assay [1] has as its system ACHN.
For assay [2], the system named is EKVX.
The subject of assay [3] is HL-60.
For assay [4], the system named is Hs-578T.
The test system of assay [5] is IGROV-1.
The subject of assay [6] is K562.
Assay [7] has as its system LOX IMVI.
Assay [8] has as its system OVCAR-4.
Assay [9] relates to OVCAR-8.
The test system of assay [10] is RXF 393.
The subject of assay [11] is SF-539.
Assay [12] relates to SNB-75.
Assay [13] concerns UACC-62.
Assay [14] deals with A498.
Assay [15] has as its system HCT-116.
The subject of assay [16] is HCT-15.
In assay [17] the test system is SK-MEL-28.
In assay [18] the test system is SK-MEL-2.
In assay [19] the test system is SK-OV-3.

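1) Cells in 96-well plates. 2) Compound, 48 h, 5 concentrations. 3) Linear interpolation between surrounding doses. 4) Unreached endpoint = highest concentration. The concentration for 50% growth inhibition is given as GI50.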 The source made the active and inactive calls. Cut-off read from the data, not from the text of the source: active = GI50 up to about 1.1 µM and inactive = higher.

Take `COc1cc(C2C(Cl)C(=O)N2NC(=O)c2ccccc2O)cc(OC)c1OC` (configuration not stated): the GI50 in assay [1] was 3.79 µM (inactive); in assay [2], 5.27 µM (inactive); in assay [3], 0.733 µM (active); in [4], 8.38 µM (inactive); in assay [5], 0.188 µM (active); in [6], 2.95 µM (inactive). Also, the GI50 in [7] is 3.7 µM (inactive); in assay [8] it was 3.99 µM (inactive); in assay [9], 2.47 µM (inactive); in [10], > 10 µM (inactive); in assay [11], 3.5 µM (inactive); in assay [12], > 10 µM (inactive). Besides, in assay [13], the GI50 is 2.89 µM (inactive).

For the compound `O=C(COc1ccccc1)NS(=O)(=O)c1ccccc1`, the GI50 in assay [14] was > 100 µM (inactive); in assay [1], > 100 µM (inactive); in [2], > 100 µM (inactive); in assay [15], > 100 µM (inactive); in assay [16] it was above 100 µM; in assay [3] it was > 100 µM (inactive). Moreover, the GI50 in [5], in assay [6], in assay [7], in [8], in [9] and in assay [10] was > 100 µM (inactive) each time. The GI50 in [11], in [17], in [18], in assay [19], in assay [12] and in assay [13] was > 100 µM (inactive) each time.

Regarding `COC(=O)C12OCC34C(CC5C(C)C6=CC(=O)OC6=CC5(C)C3C(O)C1O)OC(=O)C(O)C24` (configuration not stated), the concentration for 50% growth inhibition (GI50) in [14] is 0.544 µM (active); in assay [1], 0.895 µM (active); in assay [2], 0.716 µM (active); in [15], 0.306 µM (active); in assay [16] it was 1.48 µM; in assay [3], 0.314 µM (active). For the same compound, the GI50 is 0.23 µM (active) in assay [5]; 0.205 µM (active) in assay [6]; 0.157 µM (active) in assay [7]; 1.25 µM (inactive) in assay [8]; 0.935 µM (active) in assay [9]; 0.493 µM (active) in assay [10]. Also, the GI50 is 0.103 µM (active) in assay [11]; 0.169 µM (active) in assay [17]; 0.446 µM (active) in [18]; 5.16 µM (inactive) in assay [19]; 0.399 µM (active) in assay [12]; 0.319 µM (active) in assay [13].

`O=C(O)c1cc(CC2Cc3cc4c(cc3C2=O)CCC4)cc2c1CCC2` (configuration not stated): the GI50 in [14] is > 100 µM (inactive); in [1], 61 µM (inactive); in [2], > 100 µM (inactive); in assay [15] it was 72.1 µM (inactive); in [16], 60.7 µM; in assay [3] it was > 100 µM (inactive). In addition, the GI50 in assay [4] is 48.1 µM (inactive); in assay [5], > 100 µM (inactive); in assay [6], 40.9 µM (inactive); in [7], 84.1 µM (inactive); in assay [8], > 100 µM (inactive); in [9] it was > 100 µM (inactive). Also, the GI50 was > 100 µM (inactive) in [11]; > 100 µM (inactive) in assay [17]; > 100 µM (inactive) in [18]; > 100 µM (inactive) in [19]; 35.6 µM (inactive) in [12]; 43.2 µM (inactive) in [13].

`Nc1c(S(=O)(=O)c2ccccc2)c2nc3ccccc3nc2n2c1nc1ccccc12`: the GI50 was > 100 µM (inactive) in [14]; > 64.4 µM (inactive) in assay [1]; > 68.5 µM (inactive) in [2]; 56.2 µM (inactive) in assay [15]; 36.1 µM in assay [16]; > 100 µM (inactive) in [3]. For the same compound, the GI50 in assay [5] was > 57.3 µM (inactive); in assay [6] it was 22.4 µM (inactive); in [7] it was > 60.8 µM (inactive); in assay [8], 19.8 µM (inactive); in assay [9], 20.1 µM (inactive); in assay [10] it was > 100 µM (inactive). Also, the GI50 in assay [11] was 11.1 µM (inactive); in assay [17], 10.4 µM (inactive); in assay [18], > 55.3 µM (inactive); in [19], > 100 µM (inactive); in assay [12], 7.83 µM (inactive); in [13] it was > 62.8 µM (inactive).

`CCOC(=O)C12CCCC1(O)N(NC(=O)c1cccc(Cl)c1)C(C)=C2C(=O)OC` (configuration not stated): the GI50 in assay [14] is > 100 µM (inactive); in [1] it was > 100 µM (inactive); in assay [2], 56.6 µM (inactive); in assay [15], > 100 µM (inactive); in [16], above 100 µM; in assay [3] it was > 100 µM (inactive). For the same compound, the GI50 is > 100 µM (inactive) in [5]; 96.6 µM (inactive) in assay [6]; > 100 µM (inactive) in assay [7]; > 100 µM (inactive) in [8]; > 100 µM (inactive) in assay [9]; 46.5 µM (inactive) in assay [10]. Also, the GI50 in [11] is > 100 µM (inactive); in assay [17], > 100 µM (inactive); in [18], > 100 µM (inactive); in [19], > 100 µM (inactive); in [12], 34.5 µM (inactive); in [13] it was > 100 µM (inactive).

As to `O=C(Nc1ccc(N=C=S)cc1Cl)c1cc(Br)cc(Br)c1O`, the GI50 is 27 µM (inactive) in assay [1]; 16.3 µM (inactive) in [15]; 16.4 µM in [16]; 34.5 µM (inactive) in assay [3]; 25.6 µM (inactive) in assay [4]; 19.4 µM (inactive) in assay [5]. Further, the GI50 in [6] was 32.8 µM (inactive); in [8], 27.1 µM (inactive); in [9] it was 18.2 µM (inactive); in assay [10], 43.9 µM (inactive); in assay [11] it was 23.9 µM (inactive); in assay [17] it was 30.4 µM (inactive). Moreover, the GI50 in [18] was 31.6 µM (inactive); in [19], 42.9 µM (inactive); in assay [12], 31.1 µM (inactive); in assay [13], 18.9 µM (inactive).

In the case of `CN(CCc1ccccn1)c1ccc2c(c1)Cc1ccccc1-2`, the GI50 in assay [14] was 16.8 µM (inactive); in [1] it was 22.5 µM (inactive); in [2] it was 16.6 µM (inactive); in assay [15] it was 11.1 µM (inactive); in assay [16] it was 3.43 µM; in assay [3] it was 20.4 µM (inactive). In addition, the GI50 in assay [4] was 4.54 µM (inactive); in assay [5], 16.1 µM (inactive); in assay [6], 9.31 µM (inactive); in [7], 16.3 µM (inactive); in assay [8] it was 22.5 µM (inactive); in assay [9], 18.4 µM (inactive). Also, the GI50 in [10] is 25.1 µM (inactive); in assay [17], 29.2 µM (inactive); in assay [19], 24.2 µM (inactive); in assay [12] it was 17.9 µM (inactive); in [13] it was 10.6 µM (inactive).

On to `CCOC(=O)c1cc(C)nc2c1c(=O)n(-c1ccccc1)c(=O)n2CCCCN1CCN(c2ccccc2)CC1`, for which the GI50 in [14] is 27.6 µM (inactive); in [1] it was 58.1 µM (inactive); in [2], > 100 µM (inactive); in assay [15], > 100 µM (inactive); in assay [16], 49.3 µM; in assay [3], 27 µM (inactive). For the same compound, the GI50 was > 100 µM (inactive) in assay [4]; > 100 µM (inactive) in assay [5]; 24.9 µM (inactive) in assay [6]; 61.1 µM (inactive) in assay [7]; 34 µM (inactive) in assay [8]; > 100 µM (inactive) in assay [9]. Further, the GI50 is > 100 µM (inactive) in assay [10]; > 100 µM (inactive) in assay [17]; 64.9 µM (inactive) in [18]; > 100 µM (inactive) in [19]; > 100 µM (inactive) in [12]; 70.3 µM (inactive) in assay [13].

As to `CC(C)C(=O)/C=C/S/C=C/C(=O)C(C)C`, the GI50 in [1] was 2.24 µM (inactive); in assay [2], 5 µM (inactive); in assay [15], 1.69 µM (inactive); in [16] it was 3.2 µM; in assay [4], 21.6 µM (inactive); in assay [5], 19.5 µM (inactive). For the same compound, the GI50 in [7] is 3.31 µM (inactive); in assay [8], 6.17 µM (inactive); in [9], 2.7 µM (inactive); in [10], 4.54 µM (inactive); in assay [11], 16.8 µM (inactive); in [17], 4.28 µM (inactive). For the same compound, the GI50 is 23.4 µM (inactive) in assay [18], 41.8 µM (inactive) in assay [19], 45.1 µM (inactive) in assay [12] and 9.46 µM (inactive) in assay [13].

As to `C=C1C(=O)C23CC1C[C@H](OC(C)=O)C2C1(C)C(OC(C)=O)C[C@H](O)C(C)(C)[C@H]1C(O)[C@@H]3OC(C)=O` (some centres not stated), the GI50 is 15.1 µM (inactive) in assay [14]; 11.9 µM (inactive) in assay [1]; 13.1 µM (inactive) in assay [2]; 5.02 µM (inactive) in assay [15]; 10.4 µM in assay [16]; 3.66 µM (inactive) in [3]. Further, the GI50 was 15.8 µM (inactive) in [4]; 16.5 µM (inactive) in assay [5]; 3.56 µM (inactive) in assay [6]; 14.9 µM (inactive) in [7]; 10.8 µM (inactive) in assay [8]; 2.96 µM (inactive) in assay [9]. The GI50 was 7.24 µM (inactive) in assay [10]; 2.43 µM (inactive) in assay [11]; 11.9 µM (inactive) in [17]; 14.8 µM (inactive) in [18]; 24.8 µM (inactive) in [19]; 18.8 µM (inactive) in [12]. In addition, the GI50 in [13] was 13.3 µM (inactive).

`COC(=O)C1CC(=O)O[C@H]1c1ccc(OC)c(OC)c1` (some centres not stated): the GI50 in assay [14] was > 100 µM (inactive); in [1] it was > 100 µM (inactive); in assay [2], > 100 µM (inactive); in [15], > 100 µM (inactive); in [16], above 100 µM; in [3] it was > 100 µM (inactive). The GI50 in assay [5], in assay [6], in assay [7], in assay [8], in [9] and in assay [10] was > 100 µM (inactive) in each case. For the same compound, the GI50 in [11], in assay [17], in [18], in assay [19], in [12] and in assay [13] was > 100 µM (inactive) throughout.
